According to patent US6368632B1, “Microencapsulated 3-piperidinyl-substituted 1,2-benzisoxazoles and 1,2-benzisothiazoles” (Janssen Pharmaceutica, priority 1993, dated 2002):

How the values were obtained:
[1] = biological target: dopamine-D2 (Homo sapiens, UniProt P14416); conditions: Janssen et al., J. Pharmacol. Exp. Ther. 244 (2):685-693 (1988); cited from earlier work
[2] = Solubility in the real time in vitro dissolution receiving medium; conditions: 50 mM tris buffer, 37 °C, pH 7.4, aqueous buffer

dopamine-D2, sequence (P14416 whole entry): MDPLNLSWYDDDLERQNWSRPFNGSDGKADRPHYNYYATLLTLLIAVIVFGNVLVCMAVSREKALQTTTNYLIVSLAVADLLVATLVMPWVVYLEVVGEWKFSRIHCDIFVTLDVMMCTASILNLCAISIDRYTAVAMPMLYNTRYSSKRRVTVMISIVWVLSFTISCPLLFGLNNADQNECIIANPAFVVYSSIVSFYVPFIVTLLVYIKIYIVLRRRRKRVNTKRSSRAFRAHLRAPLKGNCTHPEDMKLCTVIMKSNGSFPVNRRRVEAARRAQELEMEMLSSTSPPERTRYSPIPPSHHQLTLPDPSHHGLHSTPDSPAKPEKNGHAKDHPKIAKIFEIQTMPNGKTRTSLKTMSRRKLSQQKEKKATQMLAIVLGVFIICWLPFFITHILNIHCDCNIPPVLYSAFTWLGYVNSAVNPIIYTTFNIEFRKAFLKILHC

Compound: Cc1nc2n(c(=O)c1CCN1CCC(c3noc4cc(F)ccc34)CC1)CCCC2 [Risperidone, 3-[2-[4-(6-fluoro-1,2-benzisoxazol-3-yl)-1-piperidinyl)ethyl]-6,7,8,9-tetrahydro-2-methyl-4H -pyrido[1,2-a]pyrimidin-4-one]
- activity in tests related to dopamine-D2 antagonism [1]: showed activity in all tests related to dopamine-D2 antagonism
- solubility [2]: ≥ 500 µg/mL
